Measurements published in patent US10058550B2, “Methods of treating heart failure” (priority 2015, dated 2018).

These compounds were tested against human APJ receptor (Homo sapiens (Human), UniProt P35414) (assay: biochemical). Settings: read-out: Activity hAPJ SPA EC50 IP.
Chain of human APJ receptor (P35414 whole entry): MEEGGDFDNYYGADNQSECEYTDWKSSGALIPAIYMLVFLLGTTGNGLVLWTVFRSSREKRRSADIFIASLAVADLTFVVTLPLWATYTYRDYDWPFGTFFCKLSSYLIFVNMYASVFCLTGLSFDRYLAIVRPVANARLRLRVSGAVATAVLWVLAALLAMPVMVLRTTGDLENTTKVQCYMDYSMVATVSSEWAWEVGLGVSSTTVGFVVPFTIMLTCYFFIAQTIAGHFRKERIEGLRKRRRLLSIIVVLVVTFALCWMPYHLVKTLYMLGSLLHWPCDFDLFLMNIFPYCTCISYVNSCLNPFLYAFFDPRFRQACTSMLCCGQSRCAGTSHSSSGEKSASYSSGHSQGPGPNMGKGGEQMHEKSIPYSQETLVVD
Type: biochemical
Outline: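 Membranes from CHO cells stably expressing cloned human APJ were incubated with WGA SPA beads in 20 mM HEPES pH 7.5, 5 mM MgCl2, 0.1% BSA, 200 mM NaCl and 3 μM GDP. Reaction started with 0.2 nM [35S]GTPγS ± ligands, 90 min at RT. EC50 obtained by non-linear regression as mean of independent experiments.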
With `COc1cccc(-c2nnc(NS(=O)(=O)[C@@H](C)[C@@H](O)C(C)(C)C)n2-c2c(OC)cccc2OC)n1` (single isomer, unassigned) [Example 436.0, (2S,3S)—N-(4-(2,6-dimethoxyphenyl)-5-(6-methoxy-2-pyridinyl)-4H-1,2,4-triazol-3-yl)-3-hydroxy-4,4-dimethyl-2-pentanesulfonamide or (2R,3R)—N-(4-(2,6-dimethoxyphenyl)-5-(6-methoxy-2-pyridinyl)-4H-1,2,4-triazol-3-yl)-3-hydroxy-4,4-dimethyl-2-pentanesulfonamide] the EC50 was 100 nM.
Work on `COc1cccc(-c2nnc(NS(=O)(=O)[C@@H](C)[C@H](O)C(C)(C)C)n2-c2c(OC)cccc2OC)n1` (single isomer, unassigned) [Example 437.0, (2S,3R)—N-(4-(2,6-dimethoxyphenyl)-5-(6-methoxy-2-pyridinyl)-4H-1,2,4-triazol-3-yl)-3-hydroxy-4,4-dimethyl-2-pentanesulfonamide or (2R,3S)—N-(4-(2,6-dimethoxyphenyl)-5-(6-methoxy-2-pyridinyl)-4H-1,2,4-triazol-3-yl)-3-hydroxy-4,4-dimethyl-2-pentanesulfonamide] yielded an EC50 of 31 nM.
Work on `COc1cccc(-c2nnc(NS(=O)(=O)[C@@H](C)[C@H](O)C3CC3)n2-c2c(OC)cccc2OC)n1` (single isomer, unassigned) [Example 439.0, (1R,2S)-1-cyclopropyl-N-(4-(2,6-dimethoxyphenyl)-5-(6-methoxy-2-pyridinyl)-4H-1,2,4-triazol-3-yl)-1-hydroxy-2-propanesulfonamide or (1S,2R)-1-cyclopropyl-N-(4-(2,6-dimethoxyphenyl)-5-(6-methoxy-2-pyridinyl)-4H-1,2,4-triazol-3-yl)-1-hydroxy-2-propanesulfonamide] yielded an EC50 of 110 nM.
Work on `COc1cccc(OC)c1-n1c(NS(=O)(=O)C[C@H](O)c2ccc(Cl)cc2S(C)(=O)=O)nnc1-c1cncc(C)c1` (single isomer, unassigned) [Example 458.0, (2R)-2-(4-chloro-2-(methylsulfonyl)phenyl)-N-(4-(2,6-dimethoxyphenyl)-5-(5-methyl-3-pyridinyl)-4H-1,2,4-triazol-3-yl)-2-hydroxyethanesulfonamide or (2S)-2-(4-chloro-2-(methylsulfonyl)phenyl)-N-(4-(2,6-dimethoxyphenyl)-5-(5-methyl-3-pyridinyl)-4H-1,2,4-triazol-3-yl)-2-hydroxyethanesulfonamide] yielded an EC50 of 0.16 nM.
Work on `COc1cccc(-c2nnc(NS(=O)(=O)[C@@H](C)[C@H](OC)c3ccc(C#N)cc3C#N)n2-c2c(OC)cccc2OC)n1` (single isomer, unassigned) [Example 474.0, (1R,2S)-1-(2,4-dicyanophenyl)-N-(4-(2,6-dimethoxyphenyl)-5-(6-methoxy-2-pyridinyl)-4H-1,2,4-triazol-3-yl)-1-methoxy-2-propanesulfonamide or (1S,2R)-1-(2,4-dicyanophenyl)-N-(4-(2,6-dimethoxyphenyl)-5-(6-methoxy-2-pyridinyl)-4H-1,2,4-triazol-3-yl)-1-methoxy-2-propanesulfonamide] yielded an EC50 of 0.35 nM.
Work on `COc1cccc(-c2nnc(NS(=O)(=O)[C@H](C)[C@H](OC)c3ccc(C#N)cc3C#N)n2-c2c(OC)cccc2OC)n1` (single isomer, unassigned) [Example 476.0, (1R,2R)-1-(2,4-dicyanophenyl)-N-(4-(2,6-dimethoxyphenyl)-5-(6-methoxy-2-pyridinyl)-4H-1,2,4-triazol-3-yl)-1-methoxy-2-propanesulfonamide or (1S,2S)-1-(2,4-dicyanophenyl)-N-(4-(2,6-dimethoxyphenyl)-5-(6-methoxy-2-pyridinyl)-4H-1,2,4-triazol-3-yl)-1-methoxy-2-propanesulfonamide] yielded an EC50 of 0.55 nM.
`COc1cccc(-c2nnc(NS(=O)(=O)C[C@@H](O)c3ccc(C#N)cc3S(C)(=O)=O)n2-c2c(OC)cccc2OC)n1` (single isomer, unassigned) [Example 482.0, (2S)-2-(4-cyano-2-(methylsulfonyl)phenyl)-N-(4-(2,6-dimethoxyphenyl)-5-(6-methoxy-2-pyridinyl)-4H-1,2,4-triazol-3-yl)-2-hydroxyethanesulfonamide or (2R)-2-(4-cyano-2-(methylsulfonyl)phenyl)-N-(4-(2,6-dimethoxyphenyl)-5-(6-methoxy-2-pyridinyl)-4H-1,2,4-triazol-3-yl)-2-hydroxyethanesulfonamide] gave an EC50 of 0.2 nM.
For `COc1cccc(-c2nnc(NS(=O)(=O)C[C@H](OC)c3ccc(C#N)cc3S(C)(=O)=O)n2-c2c(OC)cccc2OC)n1` (single isomer, unassigned) [Example 485.0, (2R)-2-(4-cyano-2-(methylsulfonyl)phenyl)-N-(4-(2,6-dimethoxyphenyl)-5-(6-methoxy-2-pyridinyl)-4H-1,2,4-triazol-3-yl)-2-methoxyethanesulfonamide or (2S)-2-(4-cyano-2-(methylsulfonyl)phenyl)-N-(4-(2,6-dimethoxyphenyl)-5-(6-methoxy-2-pyridinyl)-4H-1,2,4-triazol-3-yl)-2-methoxyethanesulfonamide], the EC50 was 0.098 nM.
`COc1cccc(-c2nnc(NS(=O)(=O)C[C@H](OC)c3ccc(C#N)cc3S(C)(=O)=O)n2-c2c(OC)cccc2OC)n1` (single isomer, unassigned) [Example 486.0, (2R)-2-(4-cyano-2-(methylsulfonyl)phenyl)-N-(4-(2,6-dimethoxyphenyl)-5-(6-methoxy-2-pyridinyl)-4H-1,2,4-triazol-3-yl)-2-methoxyethanesulfonamide or (2S)-2-(4-cyano-2-(methylsulfonyl)phenyl)-N-(4-(2,6-dimethoxyphenyl)-5-(6-methoxy-2-pyridinyl)-4H-1,2,4-triazol-3-yl)-2-methoxyethanesulfonamide] gave an EC50 of 0.073 nM.
`COc1cccc(OC)c1-n1c(NS(=O)(=O)C[C@H](O)c2ccc(C#N)cc2S(C)(=O)=O)nnc1-c1cncc(C)c1` (single isomer, unassigned) [Example 491.0, (2R)-2-(4-cyano-2-(methylsulfonyl)phenyl)-N-(4-(2,6-dimethoxyphenyl)-5-(5-methyl-3-pyridinyl)-4H-1,2,4-triazol-3-yl)-2-hydroxyethanesulfonamide or (2S)-2-(4-cyano-2-(methylsulfonyl)phenyl)-N-(4-(2,6-dimethoxyphenyl)-5-(5-methyl-3-pyridinyl)-4H-1,2,4-triazol-3-yl)-2-hydroxyethanesulfonamide] showed an EC50 of 0.33 nM.
Compound `COc1cccc(OC)c1-n1c(NS(=O)(=O)C[C@H](O)c2ccc(C#N)cc2S(C)(=O)=O)nnc1-c1cncc(C)c1` (single isomer, unassigned) [Example 492.0, (2R)-2-(4-cyano-2-(methylsulfonyl)phenyl)-N-(4-(2,6-dimethoxyphenyl)-5-(5-methyl-3-pyridinyl)-4H-1,2,4-triazol-3-yl)-2-hydroxyethanesulfonamide or (2S)-2-(4-cyano-2-(methylsulfonyl)phenyl)-N-(4-(2,6-dimethoxyphenyl)-5-(5-methyl-3-pyridinyl)-4H-1,2,4-triazol-3-yl)-2-hydroxyethanesulfonamide] has an EC50 of 0.61 nM.
